Assay results as given in PubChem BioAssay (NCI).
“And” between values parts separate entries of the source, which are not always exact repeats. Equal entries are not always repeated.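 Briefly, cells in 96-well plates were exposed to five compound concentrations for 48 h, and endpoints were estimated by linear interpolation. GI50 is the concentration that inhibits growth by half. TGI: concentration producing complete growth inhibition.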

How the values were obtained:
Assay in all cases: DTP human tumour cell line panel, 48 h
HCT-116 colon = test system: HCT-116 colon
IGROV1 ovarian = test system: IGROV1 ovarian
M14 melanoma = test system: M14 melanoma
NCI-H522 lung = test system: NCI-H522 lung
RPMI-8226 leukemia = test system: RPMI-8226 leukemia
SF-268 CNS = test system: SF-268 CNS
SF-295 CNS = test system: SF-295 CNS
SW-620 colon = test system: SW-620 colon
TK-10 renal = test system: TK-10 renal
UACC-257 melanoma = test system: UACC-257 melanoma

| SMILES | GI50 (HCT-116 colon) | TGI (HCT-116 colon) | GI50 (IGROV1 ovarian) | TGI (IGROV1 ovarian) | GI50 (M14 melanoma) | TGI (M14 melanoma) | GI50 (NCI-H522 lung) | TGI (NCI-H522 lung) | GI50 (RPMI-8226 leukemia) | TGI (RPMI-8226 leukemia) | GI50 (SF-268 CNS) | TGI (SF-268 CNS) | TGI (SF-295 CNS) | GI50 (SW-620 colon) | TGI (SW-620 colon) | GI50 (TK-10 renal) | TGI (TK-10 renal) | GI50 (UACC-257 melanoma) | TGI (UACC-257 melanoma) | GI50 (SF-295 CNS) |
| --- | --- | --- | --- | --- | --- | --- | --- | --- | --- | --- | --- | --- | --- | --- | --- | --- | --- | --- | --- | --- |
| CCCCS(=N)(=O)CC[C@H](N)C(=O)O (some centres undefined) | > 9060 µM | > 10000 µM | 336 µM | 4980 µM and 6370 µM | > 5620 µM | > 5620 µM | > 20.5 µM | 351 µM and 51.9 µM | > 8560 µM | 4730 µM and > 10000 µM | > 10000 µM | 5000 µM and > 10000 µM | > 10000 µM | 3710 µM | > 10000 µM | > 10000 µM | > 10000 µM | > 10000 µM | > 10000 µM |  |
| Nc1ccc2c(c1)[O][Sn]([c]1ccccc1)([c]1ccccc1)[O]C2=O | 7.97 µM | 15.7 µM | 12.4 µM | 29.2 µM | 11.2 µM | 25.4 µM | 0.592 µM | 2.36 µM | 2.5 µM | 10.7 µM | 7.63 µM | 21.2 µM | 14.5 µM | 2.93 µM | 8.35 µM | 7.34 µM | 15.6 µM | 8.14 µM | 20 µM | 6.38 µM |
| CN(C)CCNC(=O)c1cc([N+](=O)[O-])cc2ccc(-c3ccccc3)nc12 |  | 13.4 µM |  | 25.6 µM |  | > 100 µM |  | 17.2 µM |  | 70.2 µM |  | 50 µM | > 57.3 µM |  | > 38.7 µM |  | 95.5 µM |  | 20.8 µM |  |
| CCCCc1cc(O)ccc1O | 15.5 µM | 28.9 µM | 32.3 µM | > 100 µM |  |  | 2.28 µM | 6.97 µM | 3.13 µM | 26.6 µM | 15.5 µM | > 100 µM | > 100 µM | 33.8 µM | > 100 µM | 17.9 µM | 42.8 µM | 78.2 µM | > 100 µM | 42.7 µM |
| COc1ccc(/C=[N+](\[O-])[C@H](COCc2ccccc2)c2ccccc2)cc1 |  | > 100 µM |  | > 100 µM |  |  |  | > 100 µM |  | > 100 µM |  | > 100 µM | > 100 µM |  | > 100 µM |  | > 100 µM |  | > 100 µM |  |
| c1cc2c(cnc3cscc32)s1 |  | > 100 µM |  |  |  | > 100 µM |  | > 100 µM |  | > 100 µM |  | > 100 µM | > 100 µM |  | > 100 µM |  | > 100 µM |  | > 100 µM |  |
| COc1cc2ccc3c4cc(OC)c(OCc5ccccc5)cc4cnc3c2cc1OC |  |  |  | > 100 µM |  | > 100 µM |  | > 100 µM |  | > 100 µM |  | > 100 µM | > 100 µM |  | > 100 µM |  | > 100 µM |  | > 100 µM |  |
| CCC(=O)N1C/C(=C/c2ccc(OC)cc2)C(=O)/C(=C/c2ccc(OC)cc2)C1 | 0.263 µM | 0.646 µM | 2.21 µM | 4.93 µM | 1.92 µM | 3.96 µM | 1.85 µM | 3.86 µM | 0.231 µM | 0.748 µM | 2.31 µM | 5.71 µM |  | 1.66 µM | 3.64 µM | 2.72 µM | 6.54 µM | 2.21 µM | 5.88 µM |  |
| CC[C@@]1(OC(=O)CCC(=O)O)C(=O)OCc2c1cc1n(c2=O)Cc2cc3ccccc3nc2-1 |  |  |  | 5.98 µM |  | 1.41 µM |  | 3.72 µM |  | 3.87 µM |  | > 60.9 µM | 1.78 µM |  | 16.8 µM |  | 57.5 µM |  | 2.09 µM |  |
| O=c1c(OC/C(=N/O)c2ccccc2)c(-c2ccccc2)oc2ccccc12 |  |  |  |  | 19.4 µM | > 50 µM | 17 µM | > 50 µM | 7.07 µM | 15.6 µM | 11.7 µM | 25 µM | 23.2 µM | 11.4 µM | 25.4 µM | 11.6 µM | 22.8 µM | 14.1 µM | 30.4 µM | 11.2 µM |
| C=C(CNCCO)[C@@H]1CC[C@]2(CO)CC[C@]3(C)[C@H](CC[C@@H]4[C@@]5(C)CCC(NCCc6ccc(O)cc6)C(C)(C)[C@@H]5CC[C@]43C)[C@@H]12 (some centres undefined) |  |  | 1.64 µM | 3.55 µM | 0.187 µM | 0.398 µM | 1.64 µM | 3.13 µM | 1.02 µM | 3.13 µM | 1.56 µM | 3.22 µM | 2.96 µM | 0.468 µM | 1.85 µM | 1.66 µM | 3.1 µM | 1.7 µM | 3.08 µM | 1.51 µM |
| C=CCN(N=O)C(=O)N(CCC)CCCC(NC(C)=O)C(=O)NCc1ccccc1 (centres undefined) |  |  |  | > 100 µM |  | > 100 µM |  | > 100 µM |  | > 100 µM |  | > 100 µM | > 100 µM |  | > 100 µM |  | > 100 µM |  | > 100 µM |  |
| O=C(N=Nc1c(O)[nH]c2ccccc12)c1ccccc1O |  | > 100 µM |  |  |  | > 100 µM |  | > 100 µM |  | > 100 µM |  | > 100 µM | > 100 µM |  | > 100 µM |  | > 100 µM |  | > 100 µM |  |
| COC(=O)c1ccc2c(c1)c1c(C)c3cnccc3c(C)c1n2C |  |  | 0.0323 µM | 0.569 µM | 0.0622 µM | 0.241 µM | 0.0667 µM | 0.528 µM | 0.0475 µM | 0.409 µM | 0.0618 µM | 3.06 µM | 0.558 µM | 0.0375 µM | 1.31 µM | 0.277 µM | 3.35 µM | 0.101 µM | 0.511 µM | 0.0652 µM |
| CC(O)C(NC(=O)C(CS)NC(=O)C(CO)NC(=O)C(CCCCN)NC(=O)C(Cc1c[nH]c2ccccc12)NC(=O)C(Cc1ccc(O)cc1)NC(=O)C(CS)NC(=O)C(N)Cc1ccccc1)C(N)=O (centres undefined) | 32.9 µM | > 100 µM | 20.2 µM | > 25 µM and 44 µM |  | > 25 µM |  | > 25 µM | 22.3 µM | > 25 µM and 47.8 µM |  | > 25 µM | > 25 µM |  | > 25 µM |  |  |  | > 25 µM and 65.9 µM |  |
| NC(N)=N/N=C/c1c(-c2cc(Cl)sc2Cl)nc2n1CCS2 |  |  | 16.4 µM | > 50 µM | 6.93 µM | 14.3 µM | 20.4 µM | > 50 µM | 9.34 µM | 19.4 µM | 11.3 µM | 23.5 µM | 17.1 µM | 10.5 µM | 20.5 µM | 8.65 µM | 15.8 µM | 9 µM | 20.4 µM | 8.75 µM |
| COc1ccc2c(C3(O)CCNCC3)c[nH]c2c1 |  |  |  | > 100 µM |  | > 100 µM |  | > 100 µM |  | > 100 µM |  | > 100 µM | > 100 µM |  | > 100 µM |  | > 100 µM |  |  |  |
